In article PMC11121495, “Blap-6, a Novel Antifungal Peptide from the Chinese Medicinal Beetle Blaps rhynchopetera against Cryptococcus neoformans” (International Journal of Molecular Sciences, 2024):
Where no end group is shown, it is not given here.

What was measured:
A. baumannii = experiment: microbe, parasite or virus in culture; assay type: cell-based, Acinetobacter baumannii (ATCC 1968)
Excerpt: These standard strains of Escherichia coli (E. coli, ATCC 8739), Staphylococcus aureus (S. aureus, ATCC 6538), Pseudomonas aeruginosa (P. aeruginosa, ATCC 27853), Acinetobacter baumannii (A. baumannii, ATCC 1968), Candida albicans (ATCC 10231), and the clinical strain of Methicillin-resistant Staphylococcus aureus (MRSA, MRSA-Z) were obtained from Kunming Medical University. The standard strain of C. neoformans (ATCC 32045) was purchased from Shanghai Yingxin Laboratory Co., Ltd. (CAS NO. YXJ50058). Different strains of E. coli, S. aureus, MRSA, P. aeruginosa, and A. baumannii were cultured with shaking at 37 °C in Luria–Bertani (LB) medium. C. neoformans was cultured at 35 °C in Sabouraud Dextrose Agar (SDA) medium according to the manufacturer’s instructions.
According to Clinical and Laboratory Standards Institute (CLSI) protocols, the minimum inhibitory concentration (MIC) is the minimum drug concentration at which antibiotics inhibit the growth and reproduction of strains. The different strains were grown in their corresponding media at 35 °C or 37 °C until they entered the exponential growth phase. Fluconazole and amphotericin B were used as positive controls, and sterile 0.9% NaCl was used as a negative control. The peptides were diluted to various concentrations in sterile saline. According to 1 OD = 1 × 10^9 CFU/mL, the above bacterial solution was diluted to 2 × 10^5 CFU/mL with the corresponding medium. In advance, 100 μL of normal saline was added to a sterile 96-well plate, and 200 μL of the sample to be tested was added to the first well. The sample to be tested was subjected to double gradient dilution, and then 100 μL of bacterial solution with a concentration of 2 × 10^5 was added to each well. It was cultured at 35 °C or 37 °C for different times. The light absorption value of the bacterial solution at 600 nm was detected by a microplate reader (Epoch Etock, Biotek, Winooski, VT, USA), and the average concentration of the samples in the pores and adjacent pores that could not detect microbial growth was used as the MIC value.

C. neoformans ATCC 32045 [1] = experiment: Fungal-killing kinetics; assay type: cell-based, Cryptococcus neoformans; conditions: 10 × MIC; 1 × 10^6 CFU/mL, SDB, 37 °C, colony count
Method: The single colony of C. neoformans ATCC 32045 was selected and cultured at 180 rpm and 37 °C, washed three times with normal saline, and then resuspended, and the fungal solution was diluted to 1 × 10^6 CFU/mL with SDB medium. The positive control was fluconazole, and the negative control was normal saline. […] The fungal liquid after adding the sample was quickly put into the 37 °C constant temperature incubator, and the shaking culture was carried out at 180 rpm. […] The plate was placed in a constant temperature incubator for inverted culture for 72 h at 37 °C, and then the single colony on the plate was counted.

[2] = system: C. neoformans ATCC 32045 biofilm; experiment: Biofilm inhibition (crystal violet); assay type: cell-based, Cryptococcus neoformans; conditions: 1 × MIC, 48 h, 37 °C, A600, dose-dependent
Method: The single colony of C. neoformans ATCC 32045 was selected and cultured at 180 rpm and 37 °C. The physiological saline was washed three times and then re-suspended. The fungal concentration was adjusted to 1 × 10^6 CFU/mL, and then 100 μL of the fungal solution was added to each hole in the 96-well plate. The samples to be tested were diluted with sterile saline to 0.5×, 1×, 2×, 4×, and 8 × MIC, and 100 μL was added to the 96-well plate and mixed well. Three replicate wells were set for each concentration. The negative control group was added to the same volume of sterile saline. The positive control group was added with 10 μM fluconazole and amphotericin B, respectively, and the above group was incubated in a 37 °C incubator for 48 h. After that, the supernatant was discarded and washed with sterile PBS three times, 1 min each time. And then, 99% methanol was added and fixed for 5 min. After staining with 100 μL 0.1% crystal violet for 5 min, the plate was washed with PBS, and 100 μL 95% ethanol was added. The absorbance at 600 nm was detected by a microplate reader.

C. neoformans ATCC 32045 [3] = experiment: Transmission electron microscopy of treated cells; assay type: cell-based, Cryptococcus neoformans; conditions: 1 × MIC (0.81 μM), 12 h, 37 °C
Method: The suspension of C. neoformans ATCC 32045 was prepared and then centrifuged at 3500 rpm for 5 min. The supernatant was discarded, and sterile normal saline was added for washing. That is, the above operation was repeated three times and re-suspended. […] The positive control, including the concentration of fluconazole and amphotericin, was 1 × MIC. The negative control was added with the same volume of sterile normal saline. After the sample was added to the fungal solution, it was incubated in an incubator at 37 °C for 12 h, and then centrifuged at 1000 rpm for 10 min. The supernatant was discarded, and osmium tetroxide was slowly added along the tube wall for fixation and fixed at 4 °C for 3 h. Gradient ethanol was used for dehydration, infiltration, and embedding. Finally, ultrathin sections were performed. After the above operation, the morphological changes in C. neoformans were observed by TEM (Tecnai G2 Spirit, FEI, Eindhoven, Holland) and photographed.

C. neoformans ATCC 32045 [4] = experiment: Reactive oxygen species detection, H2DCFDA; assay type: cell-based, Cryptococcus neoformans; conditions: 1 × MIC, 8 × MIC, 32 × MIC, 30 min, 35 °C; H2DCFDA 10 μM, 488/525 nm
Method: 2′,7′-Dichlorofluorescin diacetate (H2DCFDA) is a cell-permeable probe for detecting intracellular ROS [77]. […] The different concentrations of blap-6 (1 × MIC, 8 × MIC, and 32 × MIC) were incubated with the diluted fungal solution at 35 °C for 30 min, and 0.1 mM H2O2 was used as a positive control. The negative control group was treated with normal saline and incubated at 37 °C for 30 min. Centrifuged at 8000 rpm and 4 °C for 5 min, discard the supernatant, leaving the cell precipitate. The H2DCFDA dye (Boer, Shanghai, China) was dissolved in DMSO and diluted with normal saline containing 1% DMSO to a final concentration of 10 μM. And added 1 mL of H2DCFDA (10 μM) working solution to each tube and incubated at 35 °C for 30 min. And then precipitated the pellets, discarded the supernatant, and paid attention not to suck out the fungi. […] The excitation/wavelength emission was set at 488/525 nm, and three replicates were set in the experiment.

KRCRFRIYRWGFPRRRF [blap-6]
MIC (A. baumannii): 19.54 µM
time within which all the fungi were killed (C. neoformans ATCC 32045 [1]): ≤ 30 min
inhibition of biofilm formation [2]: significantly inhibited
cell morphology by TEM (C. neoformans ATCC 32045 [3]): severe disruption of the structural and cellular morphology
production of reactive oxygen species (ROS) (C. neoformans ATCC 32045 [4]): concentration-dependent increase
